Experimental data published in US20190216923A1, “METHODS AND COMBINATION THERAPY TO TREAT CANCER” (Array BioPharma Inc., priority 2018, published 2019).

Key:
[1] = tested on: KRas mutant CT26 murine colon syngeneic tumors; test: CT26 syngeneic tumor growth, survival and tolerability; type: in vivo; settings: table
Experimental: 1% CMC/0.5% Tween-80 (CMCT) was prepared by adding 960 mL of distilled water to a 1000 mL Pyrex® glass bottle with a stir bar in the bottom, and was used as the oral vehicle. […] Carboxymethylcellulose (5 g, CMC, low viscosity, Sigma C5678, Batch #033K0008) was added slowly, over one hour. The solution was stirred until the CMC dissolved and the solution was clear. 30 mg/kg MEK162 (Binimetinib, 100% active) was prepared as a white, homogeneous suspension in CMCT. MEK162 was administered in 10 mL/kg and dosed at 30 mg/kg (3.0 mg/mL) by oral gavage. To prepare, dry test compound (90 mg) was weighed and 30 mL CMCT added. Dose suspension was sonicated until a fine suspension was achieved (˜15 min). Final dose suspension was stored at 4° C. during live phase and sonicated to resuspend prior to dose administration. Dose suspension was prepared every 4-5 days or as needed. […]
Animals were monitored for tumor growth and body weight 2-3 times per week based on outgrowth kinetics. Tumor diameter was measured with digital calipers, and the tumor volume in mm^3 was calculated by the formula: Volume=((width)^2×length)/2. TGI was calculated on day 15. […]
Survival defined as morbidity, mortality or tumor size exceeding 1400 mm3. […] Cures: Animals with no palpable tumor at the end of the study were scored as cures. […]

[2] = Binimetinib steady state exposure quoted in figure legends; type: in vivo
CT26 tumors = test: T-cell fraction and clonality by immune sequencing (mmTCRB assay); type: in vivo, mouse; settings: 5/10 tumors per group, FIG. 15
Experimental: Animals were monitored for tumor growth and body weight 2-3 times per week based on outgrowth kinetics. Tumor diameter was measured with digital calipers, and the tumor volume in mm^3 was calculated by the formula: Volume=((width)^2×length)/2. TGI was calculated on day 15. Animals were removed from study if found moribund or if tumor volume exceeded 1400 mm^3. At that time, tumor tissue was harvested and frozen for later analysis of T-cell clonality by immune sequencing (Adaptive Biotech, San Diego, Calif.). Food, water, temperature and humidity were according to Pharmacology Testing Facility performance standards (SOP's) which are in accordance with the 1996 Guide for the Care and Use of Laboratory Animals (NRC) and AAALAC-International.
The mechanism of combination activity was investigated by analyzing T-cell fraction and clonality by immune sequencing in 5/10 tumors from each group (FIG. 15). To determine the effect of binimetinib on the T cell repertoire of CT26 tumors, analysis was performed of mouse T-cell diversity, clonality and abundance as potential biomarkers by survey level sequencing of mouse tumor samples using the mmTCRB assay. Clonality was determined by quantitating the extent of mono- or oligoclonal expansion by measuring the shape of the clone frequency distribution. […]

melanoma cell lines = test: Cell surface MHC class I expression, summary over the melanoma cell line panel; type: cell-based, human
Experimental: The goal of this study was to measure the effects of binimetinib on cell surface MHC class I expression in various melanoma cell lines. In this study, eight melanoma cell lines were evaluated: MEL-JUSO (NRAS Q61L mutation), IPC-298 (NRAS Q61L mutation), A375 (BRAF V600E, homozygous mutation), HS936.T (NRAS Q61K mutation and BRAF N581K mutation), MM485 (NRAS Q61R mutation), SK-MEL-2 (NRAS Q61R mutation), MM415 (NRAS Q61L mutation), Malme-3M (BRAF V600E, heterozygous mutation). The cells lines were seeded into flat bottom 96-well tissue culture plates at a density of 5000 cells per well and allowed to adhere overnight. The following day cells were treated with vehicle control (0.25% DMSO) or varying dilutions of Binimetinib (0.7 nM-25000 nM) for 1 hour. Cells were then treated with vehicle control or 100 ng/ml IFNgamma (R&D systems) for 72 hours. Cells were washed, trypsinized, and stained with Alexa Fluor® 647 anti-human HLA-A,B,C antibody (W6/32, eBioscience) and analyzed on a BD FACSCanto II flow cytometer. An IFNg titration and time course were performed for assay optimization. Maximal induction of MHC class I expression was seen 100 ng/mL of IFNγ (see, e.g., FIGS. 1 and 2).

Cn1cnc2c(F)c(Nc3ccc(Br)cc3F)c(C(=O)NOCCO)cc21 [Binimetinib, 6-(4-bromo-2-fluorophenylamino)-7-fluoro-3-methyl-3H-benzoimidazole-5-carboxylic acid (2-hydroxyethoxy)-amide]
Median Survival [1]: 26 | Steady state Cmax, free fraction ([2]; free fraction): 26 nM | Trough (day 15), free fraction ([2]; free fraction, day 15): 8.1 nM | Cmax ([2]; in vivo, total): 1000 nM | T-cell clonality (CT26 tumors): trend for decreased | T-cell fraction (CT26 tumors): trend for decreased | increase of IFNg-induced MHC class I (melanoma cell lines; all tested cell lines, +IFNg): 1.5-4 fold | increase in MHC class I cell surface expression (melanoma cell lines; in the 6 of 8 melanoma cell lines that responded, no IFNg): 1.5-3 fold
